Assay results: the supplement of paper PMC10307832

Assays:
Experiment in all cases: relative viability (nuclei count vs DMSO), 5 days (fraction); higher = more cells survive
[1] = system: ABC-1
Outline: (§1)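 Medians of duplicate plates are given as relative viability. That measure is the nuclei count in treated wells divided by the count in vehicle wells. Counts were taken on 4× images of lung cancer cell lines in 1536-well plates, 5 days after pin-tool dosing the day after seeding with one drug alone or a fixed anchor-drug dose plus five library-drug doses (not always all listed) in √10 steps.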

[2] = system: CAL-12T
Outline: as §1

[3] = system: COR-L 105
Outline: as §1

[4] = system: ChaGo-K-1
Outline: as §1

[5] = system: EMC-BAC-2
Outline: as §1

[6] = system: EPLC-272H
Outline: as §1

[7] = system: HCC-15
Outline: as §1

[8] = system: HCC-78
Outline: as §1

[9] = system: HOP-62
Outline: as §1

[10] = system: LXF-289
Outline: as §1

[11] = system: NCI-H1666
Outline: as §1

[12] = system: NCI-H1755
Outline: as §1

[13] = system: NCI-H1915
Outline: as §1

[14] = system: NCI-H1975
Outline: as §1

[15] = system: NCI-H1993
Outline: as §1

[16] = system: NCI-H2023
Outline: as §1

[17] = system: NCI-H2085
Outline: as §1

[18] = system: NCI-H2126
Outline: as §1

[19] = system: NCI-H3122
Outline: as §1

[20] = system: NCI-H322M
Outline: as §1

[21] = system: NCI-H358
Outline: as §1

[22] = system: NCI-H441
Outline: as §1

[23] = system: NCI-H522
Outline: as §1

[24] = system: UMC-11
Outline: as §1

Structure (SMILES): Clc1ccc(Nc2nnc(Cc3ccncc3)c3ccccc23)cc1 [Vatalanib] + COc1cccc2cc(-c3nc([C@H]4CC[C@H](C(=O)O)CC4)n4ncnc(N)c34)[nH]c12 [OSI-027] (partner 0.5 µM)
- relative viability ([1]; first compound 0.04 µM): 0.444
- relative viability ([1]; first compound 0.1265 µM): 0.512
- relative viability ([1]; first compound 1.265 µM): 0.381
- relative viability ([1]; first compound 4 µM): 0.486
- relative viability ([2]; first compound 0.04 µM): 0.574
- relative viability ([2]; first compound 0.1265 µM): 0.523
- relative viability ([2]; first compound 0.4 µM): 0.583
- relative viability ([2]; first compound 1.265 µM): 0.556
- relative viability ([2]; first compound 4 µM): 0.581
- relative viability ([3]; first compound 0.04 µM): 0.694
- relative viability ([3]; first compound 0.1265 µM): 0.59
- relative viability ([3]; first compound 0.4 µM): 0.721
- relative viability ([3]; first compound 1.265 µM): 0.721
- relative viability ([3]; first compound 4 µM): 0.561
- relative viability ([4]; first compound 0.04 µM): 0.589
- relative viability ([4]; first compound 0.1265 µM): 0.548
- relative viability ([4]; first compound 0.4 µM): 0.622
- relative viability ([4]; first compound 1.265 µM): 0.5
- relative viability ([4]; first compound 4 µM): 0.594
- relative viability ([5]; first compound 0.04 µM): 0.413
- relative viability ([5]; first compound 0.1265 µM): 0.392
- relative viability ([5]; first compound 0.4 µM): 0.398
- relative viability ([5]; first compound 1.265 µM): 0.335
- relative viability ([5]; first compound 4 µM): 0.4
- relative viability ([6]; first compound 0.04 µM): 0.268
- relative viability ([6]; first compound 0.1265 µM): 0.259
- relative viability ([6]; first compound 0.4 µM): 0.323
- relative viability ([6]; first compound 1.265 µM): 0.301
- relative viability ([6]; first compound 4 µM): 0.303
- relative viability ([7]; first compound 0.04 µM): 0.714
- relative viability ([7]; first compound 0.1265 µM): 0.724
- relative viability ([7]; first compound 0.4 µM): 0.535
- relative viability ([7]; first compound 1.265 µM): 0.582
- relative viability ([7]; first compound 4 µM): 0.523
- relative viability ([8]; first compound 0.04 µM): 0.318
- relative viability ([8]; first compound 0.1265 µM): 0.37
- relative viability ([8]; first compound 0.4 µM): 0.381
- relative viability ([8]; first compound 1.265 µM): 0.306
- relative viability ([8]; first compound 4 µM): 0.351
- relative viability ([9]; first compound 0.04 µM): 0.906
- relative viability ([9]; first compound 0.1265 µM): 0.804
- relative viability ([9]; first compound 0.4 µM): 0.833
- relative viability ([9]; first compound 1.265 µM): 0.741
- relative viability ([9]; first compound 4 µM): 0.875
- relative viability ([10]; first compound 0.04 µM): 0.824
- relative viability ([10]; first compound 0.1265 µM): 0.802
- relative viability ([10]; first compound 0.4 µM): 0.858
- relative viability ([10]; first compound 1.265 µM): 0.806
- relative viability ([10]; first compound 4 µM): 0.761
- relative viability ([11]; first compound 0.04 µM): 0.852
- relative viability ([11]; first compound 0.1265 µM): 0.815
- relative viability ([11]; first compound 0.4 µM): 0.883
- relative viability ([11]; first compound 1.265 µM): 0.802
- relative viability ([11]; first compound 4 µM): 0.82
- relative viability ([12]; first compound 0.04 µM): 0.82
- relative viability ([12]; first compound 0.1265 µM): 0.747
- relative viability ([12]; first compound 0.4 µM): 0.705
- relative viability ([12]; first compound 1.265 µM): 0.654
- relative viability ([12]; first compound 4 µM): 0.634
- relative viability ([13]; first compound 0.04 µM): 0.673
- relative viability ([13]; first compound 0.1265 µM): 0.636
- relative viability ([13]; first compound 0.4 µM): 0.632
- relative viability ([13]; first compound 1.265 µM): 0.649
- relative viability ([13]; first compound 4 µM): 0.61
- relative viability ([14]; first compound 0.04 µM): 0.778
- relative viability ([14]; first compound 0.1265 µM): 0.739
- relative viability ([14]; first compound 0.4 µM): 0.688
- relative viability ([14]; first compound 1.265 µM): 0.568
- relative viability ([14]; first compound 4 µM): 0.673
- relative viability ([15]; first compound 0.04 µM): 0.55
- relative viability ([15]; first compound 0.1265 µM): 0.558
- relative viability ([15]; first compound 0.4 µM): 0.554
- relative viability ([15]; first compound 1.265 µM): 0.594
- relative viability ([15]; first compound 4 µM): 0.58
- relative viability ([16]; first compound 0.04 µM): 0.376
- relative viability ([16]; first compound 0.1265 µM): 0.366
- relative viability ([16]; first compound 0.4 µM): 0.419
- relative viability ([16]; first compound 1.265 µM): 0.342
- relative viability ([16]; first compound 4 µM): 0.343
- relative viability ([17]; first compound 0.04 µM): 0.685
- relative viability ([17]; first compound 0.1265 µM): 0.819
- relative viability ([17]; first compound 0.4 µM): 0.883
- relative viability ([17]; first compound 1.265 µM): 0.697
- relative viability ([17]; first compound 4 µM): 0.544
- relative viability ([18]; first compound 0.04 µM): 0.692
- relative viability ([18]; first compound 0.1265 µM): 0.693
- relative viability ([18]; first compound 0.4 µM): 0.797
- relative viability ([18]; first compound 1.265 µM): 0.62
- relative viability ([18]; first compound 4 µM): 0.625
- relative viability ([19]; first compound 0.04 µM): 1.13
- relative viability ([19]; first compound 0.1265 µM): 0.982
- relative viability ([19]; first compound 1.265 µM): 0.934
- relative viability ([19]; first compound 4 µM): 0.848
- relative viability ([20]; first compound 0.04 µM): 0.573
- relative viability ([20]; first compound 0.1265 µM): 0.546
- relative viability ([20]; first compound 0.4 µM): 0.493
- relative viability ([20]; first compound 1.265 µM): 0.52
- relative viability ([20]; first compound 4 µM): 0.481
- relative viability ([21]; first compound 0.04 µM): 0.811
- relative viability ([21]; first compound 0.1265 µM): 0.678
- relative viability ([21]; first compound 0.4 µM): 0.747
- relative viability ([21]; first compound 1.265 µM): 0.684
- relative viability ([21]; first compound 4 µM): 0.698
- relative viability ([22]; first compound 0.04 µM): 0.581
- relative viability ([22]; first compound 0.1265 µM): 0.504
- relative viability ([22]; first compound 0.4 µM): 0.597
- relative viability ([22]; first compound 1.265 µM): 0.658
- relative viability ([22]; first compound 4 µM): 0.713
- relative viability ([23]; first compound 0.04 µM): 0.703
- relative viability ([23]; first compound 0.1265 µM): 0.677
- relative viability ([23]; first compound 0.4 µM): 0.73
- relative viability ([23]; first compound 1.265 µM): 0.714
- relative viability ([23]; first compound 4 µM): 0.796
- relative viability ([24]; first compound 0.04 µM): 0.461
- relative viability ([24]; first compound 0.1265 µM): 0.487
- relative viability ([24]; first compound 0.4 µM): 0.44
- relative viability ([24]; first compound 1.265 µM): 0.433
- relative viability ([24]; first compound 4 µM): 0.518
